Read-outs that look alike come from different tables or passages of the source.
Assays:
[1] = molecular target: human dopamine D2,L receptors (Homo sapiens, UniProt P14416); assay: Inhibition of forskolin-induced [3H]-cAMP accumulation in CHO-K1 cells
[2] = test system: noradrenaline levels in the prefrontal cortex; assay: In vivo microdialysis, dialysate noradrenaline; settings: awake freely moving rat, p.o. or i.p. (italic)
Description: (§1) Microdialysis allows an insight into changes in neurotransmitters and their metabolites in the brain extracellular space in discrete brain regions in awake freely moving animals. […] The in vivo effects of the (mixtures of) compounds of the invention on dopamine, serotonin and noradrenalin levels were determined by microdialysis according to the protocol given below:
(§2) Dopamine and Serotonin Measurements by In Vivo Microdialysis
(§3) Surgery. […] Antibacterial agents and analgesics were administered prior to (Baytril (150 μl/rat i.m.)) and after (Temgesic (0.005-0.01 mg/kg i.m. non-diluted/rat)) surgery. […] In other animals, the skull is exposed and a 1 mm bore-hole is drilled through the bone above the prefrontal cortex (co-ordinates from bregma (mm): anterior-posterior +3.2, mediolateral 0.6 and dorsoventral −1.5 at a 0° angle (from dura)) in those animals where determination of dialysate noradrenaline levels is required. Smaller bore holes are made and three screws are inserted within the skull. The intracerebral guide cannula (CMA, Carnegie) is lowered through the hole until the tip is immediately above the nucleus accumbens or prefrontal cortex. The guide together with the screws are cemented onto the bone with dental cement and the surrounding skin sutured. Animals are allowed to recover at least six days prior to microdialysis experimentation.
Microdialysis experimentation. On the day of the experiment microdialysis probes (CMA 12, 0.5 mm outer diameter, Stockholm, Sweden) are inserted through the guide cannula into the nucleus accumbens (2 mm membrane length) or prefrontal cortex (4 mm membrane length). The Inlet of the probe is connected with low volume tubing (F.E.B-tubing, 1.2 μl/10 cm, Carnegie) via a liquid-swivel (dual channel; Instech, UK) on a counterbalanced arm, to a syringe-pump (Harvard, 10 channel). […] The outlet of the probe is connected with low volume tubing via the liquid swivel to a CMA 140 fraction collector. […]
Analysis of dialysate dopamine and serotonin. […] Dopamine and serotonin are electrochemically detected with an EG&G (model 400, Princeton Applied Research) controller equipped with a glassy carbon working electrode (VT-03; Antec, Leiden, the Netherlands). […] The output is recorded on a computer equipped with Hyperchem™ (Hewlett-Packard Inc.) which measures peak height values. Calculations (μg/20 min) are made using peak height values of analysed standard solutions containing known amounts of dopamine and serotonin. […] The compounds are electrochemically detected with an EG&G (model 400, Princeton Applied Research) controller equipped with a glassy carbon working electrode (VT-03; Antec, Leiden, the Netherlands). […]

[3] = test system: dialysate dopamine in the nucleus accumbens; assay: In vivo microdialysis, dialysate dopamine; parameters: species or system rat; settings: read-out: [dopamine] ED75
Description: as §1, §2, §3
(§4) Microdialysis experimentation. On the day of the experiment microdialysis probes (CMA 12, 0.5 mm outer diameter, Stockholm, Sweden) are inserted through the guide cannula into the nucleus accumbens (2 mm membrane length) or prefrontal cortex (4 mm membrane length). The Inlet of the probe is connected with low volume tubing (F.E.B-tubing, 1.2 μl/10 cm, Carnegie) via a liquid-swivel (dual channel; Instech, UK) on a counterbalanced arm, to a syringe-pump (Harvard, 10 channel). […] The outlet of the probe is connected with low volume tubing via the liquid swivel to a CMA 140 fraction collector. The tubing is supported by a stainless steel wire which leads from the swivel down to a clip, which fits to a collar around the neck of an animal. […] Samples are collected at a flow rate of 2 μl/min at 20 min intervals (40 μl volume) in vials containing 50 μl of a HCOOH/cysteine solution (0.02M/0.2 w/v %) to prevent oxidation of the compounds. Following a baseline period of 5 samples, drugs are administered systemically and at least a further 8 samples collected. All samples were stored post-collection on dry ice and frozen at […] prior to analysis by high-performance liquid chromatography (HPLC) coupled to electrochemical detection described below.
(§5) Analysis of dialysate dopamine and serotonin. […] The final pH was adjusted to 4.9 with 1N NaOH. Dopamine and serotonin are electrochemically detected with an EG&G (model 400, Princeton Applied Research) controller equipped with a glassy carbon working electrode (VT-03; Antec, Leiden, the Netherlands). The potential is set at 600 mV versus an Ag/AgCl reference electrode. The output is recorded on a computer equipped with Hyperchem™ (Hewlett-Packard Inc.) which measures peak height values. Calculations (μg/20 min) are made using peak height values of analysed standard solutions containing known amounts of dopamine and serotonin. Analysis of dialysate dopamine and noradrenaline. […] The basal mobile phase consists of: 50 mM NaAc, and 0.27 mM EDTA. The final concentration of 1-octanesulfonic acid (NOS) and methanol, as well as the final pH (adjusted with HAc), vary with the different brain areas under examination. The compounds are electrochemically detected with an EG&G (model 400, Princeton Applied Research) controller equipped with a glassy carbon working electrode (VT-03; Antec, Leiden, the Netherlands). The potential is set at 450 mV versus a Hyref reference electrode.

[4] = test system: dialysate serotonin in the nucleus accumbens; assay: In vivo microdialysis, dialysate serotonin; settings: awake freely moving rat; for ED150: p.o. or i.p. (italic); for [serotonin] ED75 (footnote 1): footnote 1: ED75 instead of ED150
Description: as §1, §2, §3, §4, §5

[5] = molecular target: noradrenaline reuptake sites (Rattus norvegicus, UniProt Q9WTR4); assay: In vitro functional inhibition of [3H]-noradrenalin reuptake in rat hypothalamus synaptosomes; format: biochemical
Description: (§6) The in vitro functional activity at dopamine-D2 receptors, Including the intrinsic activity (ε) of the compounds which can be used according to the invention as well as relevant reference compounds was measured by their ability to inhibit forskolin-induced [^3H]cAMP accumulation. Serotonin and noradrenaline reuptake inhibitory activity was measured In rat brain synaptosomes.
Synaptosomes were pre-incubated in absence or presence of the test compound for 10 min at 37° C., in a medium containing the monoamine oxidase inhibitor pargyline (7 μM). Subsequently, the synaptosomes were exposed to [^3H]-noradrenaline ([…] final concentration) for 15 min.
(§7) [^3H]-noradrenaline uptake was stopped by filtration with a harvester and the non-incorporated radioactivity was removed by an extensive washing programme. The filter plates with synaptosomes were dehydrated and the amount of [^3H]-noradrenaline present was determined by Betaplate liquid scintillation counting.

serotonin reuptake sites = molecular target: T1, serotonin reuptake sites (Rattus norvegicus, UniProt P31652); assay: In vitro functional inhibition of [3H]-serotonin reuptake in rat brain synaptosomes; format: biochemical
T1 construct: the cerebral hemispheres were rapidly removed and a P2-synaptosomal fraction was prepared; from tissue; host or cells: rat (Wistar) cerebral hemispheres, P2-synaptosomal fraction
T1 sequence (P31652 whole entry): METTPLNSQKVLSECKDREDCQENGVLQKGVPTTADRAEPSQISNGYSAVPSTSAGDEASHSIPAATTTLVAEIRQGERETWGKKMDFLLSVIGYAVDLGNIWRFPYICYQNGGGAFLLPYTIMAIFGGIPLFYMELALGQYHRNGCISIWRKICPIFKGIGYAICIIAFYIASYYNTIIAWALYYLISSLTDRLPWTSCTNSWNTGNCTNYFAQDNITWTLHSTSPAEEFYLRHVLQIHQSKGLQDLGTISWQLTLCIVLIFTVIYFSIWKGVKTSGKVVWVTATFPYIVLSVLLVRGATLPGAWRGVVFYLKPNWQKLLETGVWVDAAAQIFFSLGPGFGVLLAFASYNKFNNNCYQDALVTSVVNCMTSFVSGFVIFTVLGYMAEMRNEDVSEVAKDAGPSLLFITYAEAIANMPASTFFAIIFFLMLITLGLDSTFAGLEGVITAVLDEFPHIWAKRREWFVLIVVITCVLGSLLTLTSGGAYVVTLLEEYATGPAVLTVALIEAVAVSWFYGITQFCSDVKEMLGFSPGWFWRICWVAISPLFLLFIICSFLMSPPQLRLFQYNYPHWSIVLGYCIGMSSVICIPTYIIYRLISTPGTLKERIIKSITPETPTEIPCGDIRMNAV
Description: as §6
In Vitro Functional Inhibition of [^3H]-serotonin Reuptake
Synaptosomes were pre-incubated in absence or presence of the test compound for 15 min at 37° C., in a medium containing the monoamine oxidase inhibitor pargyline (7 μM). Subsequently, the synaptosomes were exposed to [^3H]-serotonin ([…] final concentration) for 10 min.
as §7, with “[^3H]-serotonine uptake” for “[^3H]-noradrenaline uptake”, “of [^3H]-serotonin” for “of [^3H]-noradrenaline”

[6] = nucleus accumbens, awake freely moving rat, p.o. or i.p. (italic)
[7] = rat brain synaptosomes, read-out: 5-HT uptake pIC50 (converted)
[8] = fraction of full agonism (ε = 1, quinpirole)

Chain of human dopamine D2,L receptors (P14416 whole entry): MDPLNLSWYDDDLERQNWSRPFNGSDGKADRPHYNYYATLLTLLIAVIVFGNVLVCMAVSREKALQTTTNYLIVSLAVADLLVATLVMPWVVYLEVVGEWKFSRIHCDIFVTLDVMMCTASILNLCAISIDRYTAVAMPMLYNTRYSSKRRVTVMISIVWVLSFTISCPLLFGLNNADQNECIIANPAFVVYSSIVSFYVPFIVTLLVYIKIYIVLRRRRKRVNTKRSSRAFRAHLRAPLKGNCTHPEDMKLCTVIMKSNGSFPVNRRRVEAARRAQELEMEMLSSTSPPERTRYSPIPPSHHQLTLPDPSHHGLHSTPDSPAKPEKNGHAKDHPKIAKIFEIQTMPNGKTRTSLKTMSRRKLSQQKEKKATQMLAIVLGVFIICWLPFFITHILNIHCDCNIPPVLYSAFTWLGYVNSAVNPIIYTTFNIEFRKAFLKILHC

Row | NA uptake pIC50 ([5]; rat hypothalamus synaptosomes) | IC50 (serotonin reuptake sites; [7]) | cAMP accum. ε (intrinsic activity) [1, 8] | SMILES | EC50 [1] | cAMP accum. ε (intrinsic activity) [1] | ED75 [3, 6] | ED150 [4] | further results
1 |  |  |  | CNCCCN1c2ccccc2CCc2ccccc21 [DMI] | > 1000 nM | 0.12 | > 3 mg/kg | > 3 mg/kg | [noradren] ED150 [2]: 1.64 mg/kg
2 | <5.0 | 126 nM | 0.27 | Cn1cc(CCCN2CCN(c3cccc4[nH]c(=O)oc34)CC2)c2cc(F)ccc21 [example 1a] | > 1000 nM |  | 8.14 mg/kg | 2.52 mg/kg | 
3 | 5.2 | > 10000 nM | 0.27 | O=c1[nH]c2cccc(N3CCN(CCCc4cn5c6c(cc(F)cc46)CCC5)CC3)c2o1 [example 1b] |  |  |  |  | 
4 | <5.0 | 25.1 nM | 0.53 | O=c1[nH]c2cccc(N3CCN(CCCc4c[nH]c5ccc(F)cc45)CC3)c2o1 [example 1c] | 158 nM |  | 3.92 mg/kg | 14.8 mg/kg | 
5 | <5.0 | 398 nM | 0.56 | Cc1cccc2c(CCCN3CCN(c4cccc5[nH]c(=O)oc45)CC3)c[nH]c12 [example 1d] | < 1 nM |  |  |  | 
6 | <5.0 | 251 nM | 0.60 | O=c1[nH]c2cccc(N3CCN(CCCc4c[nH]c5ccccc45)CC3)c2o1 [example 1e] | < 1 nM |  |  |  | 
7 | 5.3 |  | 0.10 | COCCCC/C(=N\OCCN)c1ccc(C(F)(F)F)cc1 [fluvoxamine] | > 1000 nM |  |  |  | 
8 |  |  |  | CCN(CC)C(=O)C1(c2ccccc2)CC1CN (stereo not drawn) [milnacipran] | > 1000 nM | 0.21 | > 30 mg/kg | 5.5 mg/kg | NA uptake pIC50 [5]: 5.5; IC50 (serotonin reuptake sites): 251 nM; [noradren] ED150 [2]: 2.41 mg/kg
9 |  |  |  | Fc1ccc([C@@H]2CCNC[C@H]2COc2ccc3c(c2)OCO3)cc1 [paroxetine] | > 1000 nM | 0.36 | > 10 mg/kg | < 10 mg/kg | NA uptake pIC50 [5]: <5.0
10 | 5.3 | > 10000 nM | 0.36 | CCCN1CCC[C@@H](c2cccc(O)c2)C1 [preclamol] |  |  | 14.5 mg/kg | > 30 mg/kg | 
11 |  |  |  | CCCN1CCC[C@@H]2Cc3n[nH]cc3C[C@H]21 [quinpirole] |  |  | 0.04 mg/kg | > 3 mg/kg | 
12 |  |  |  | CCOc1ccccc1OC(c1ccccc1)C1CNCCO1 (stereo not drawn) [reboxetine] |  |  | > 3 mg/kg | > 3 mg/kg | [noradren] ED150 [2]: <3.0 mg/kg
13 |  |  |  | C=CCN1CCc2nc(N)sc2CC1 [talipexole] | 39.8 nM | 1.00 | < 0.1 mg/kg | > 10 mg/kg | NA uptake pIC50 [5]: <5.0; agonist properties at human dopamine D2 receptors (FIG. 2 upper panel) [1]: full agonists; IC50 (serotonin reuptake sites): > 10000 nM
14 | <5.0 | > 10000 nM | 0.38 | CCN(CC)C(=O)N[C@H]1C[C@@H]2c3cccc4[nH]cc(c34)C[C@H]2N(C)C1 [terguride] | 0.398 nM |  | > 10 mg/kg | > 10 mg/kg | agonist properties at human dopamine D2 receptors (FIG. 2 upper panel) ([1]; agonist mode): partial agonists; antagonist effects against the reference agonist quinpirole (FIG. 2 lower panel) ([1]; antagonist mode versus quinpirole): partial antagonists

Row | SMILES | NA uptake pIC50 ([5]; rat hypothalamus synaptosomes) | IC50 (serotonin reuptake sites; [7]) | cAMP accum. ε (intrinsic activity) [1, 8] | EC50 [1] | cAMP accum. ε (intrinsic activity) [1] | ED75 [3, 6] | ED150 [4] | further results
15 | CN1CCN(c2cccc3[nH]c(=O)oc23)CC1 [SLV 308] | <5.0 | > 10000 nM |  | 31.6 nM |  | 0.04 mg/kg |  | EC50 ([1]; pEC50 (inhibition of cAMP formation)): 10 nM; [noradren] ED150 [2]: 0.53 mg/kg; [serotonin] ED75 (footnote 1) [4]: 0.45^1 mg/kg
16 | O=c1[nH]c2cccc(N3CCN(Cc4cccc(-c5ccccc5)c4)CC3)c2o1 [bifeprunox] | 4.6 | 15800 nM |  | 15.8 nM | 0.20 |  |  | ED75 ([3]; Rattus norvegicus): > 10 mg/kg; [serotonin] ED75 (footnote 1) [4]: >10^1 mg/kg

Reference: US20050038015A1, “Partial dopamine-D 2 receptor agonist plus serotonin and/oder noradrenaline inhibitor activity” (priority 2002, published 2005)
